Reference: patent US12655091B2, “N-benzyl-alpha-aminoamides as anaphase-promoting complex/cyclosome (APC/C) inhibitors” (CONSEJO SUPERIOR DE INVESTIGACIONES CIENTÍFICAS (CSIC), priority 2020, dated 2026)
Several values for one entry are separate records, joined by “and”; a condition that tells them apart may be missing. Equal entries are not always repeated. Entries after “also recorded” stand apart in the source; their conditions may differ. Where two headings read alike, the source gives them in different places. Blank lines part the entries; values can stand above or below the compound they belong to.

Legend:
[1] = biological target: T1, APC/C activation by Cdc20 (Homo sapiens, UniProt Q12834); assay: Western blot of Cyclin B1 levels (inhibition of APC/C activation by Cdc20); assay type: cell-based; details: HCC-38 cells, FIG. 9
T1 construct: endogenous in cells; the method paragraph speaks of HeLa cells
Description: FIG. 9. […] Consequently, non-ubiquitylated Cyclin B escapes degradation by the proteasome. […] HCC-38 cells at a density of 200,000 cells per well were used in this study.
The entirety of the following procedure was carried out under aseptic conditions. HeLa cells were counted and seeded into clear bottom 6-well plates (Greiner Bio-One) at a density of 200,000 cells/well in a volume of 2 ml and placed in an incubator (37° C., 5% CO2) overnight. The following day medium was aspired and 1.5 ml of treatment was added to wells. Cells were treated with controls (medium alone) and compounds. All stock solutions of the small compounds were prepared by resuspension of the solid in DSMO, then diluted in medium to the final concentrations being tested. The effect of these compounds on mitosis was analysed by measuring Cyclin B1 levels, a downstream target of APC/C-Cdc20. Cells were incubated and had 24 hours treatment exposure. Plates were then placed on ice and solution from each well was aspired. […]

Caco-2 cells = assay: Intestinal permeability assay in Caco-2 cells; assay type: in vitro ADME, human
Description: (§1) This was determined using an intestinal permeability assay in Caco-2 cells, a human colorectal adenocarcinoma cell line (see FIG. 4).

[2] = Intestinal permeability assay in Caco-2 cells; assay type: in vitro ADME, human; details: human
Description: as §1

[3] = system: HCC-38 triple negative breast cancer cells; assay: Clonogenic assay of HCC-38 cells; assay type: cell-based; details: HCC-38, 24 hours treatment, stained after 12 days, FIG. 7
Description: FIG. 7. Clonogenic assay of HCC-38 cells treated with DMSO (1.2% v/v), the Mps1 kinase inhibitor Reversine, the Cdc20 binder Apcin and compound o-TFB-Tyr. The clones were stained after 12 days incubation at 37 Celsius. Following treatment of the HCC38 cells with the compounds for 24 hours, the medium was exchanged every 48 hrs.
The entirety of the following procedure was carried out under aseptic conditions. HeLa cells were counted and seeded into clear bottom 6-well plates (Greiner Bio-One) at density 500 cells/well (250 cells/ml). 2 ml of cells were added to each well and placed in the incubator (37° C., 5% CO2) overnight. The following day medium was aspired and 1.5 ml of treatment was added to wells. Cells were treated with control (medium alone) and compounds. All stock solutions of compounds were prepared by resuspension of the solid in DMSO, then diluted in medium to the final concentrations being tested. HeLa cells viability was measured using clonogenic assay, a cell survival-based assay that determines cell reproductive death after treatment with cytotoxic agents. Cells were incubated and had 72 hours treatment exposure. […]
Each well of the clonogenic assay was then scanned using an Axiozoom Zeiss Axioplan fluorescence microscope equipped for DIC imaging and fluorescence imaging and analysed using the ImageJ2 image-processing software (Fiji). […]

[4] = Metabolic stability test (liver microsomes); assay type: in vitro ADME, Human
From the text: The liver is the major drug metabolising organ for the large majority of pharmaceutical drugs. A good in vitro model to investigate drug metabolism is based on the use of microsomes, a subcellular fraction of the liver.

plasma protein [5] = assay: Plasma protein binding assay (human); assay type: in vitro ADME
From the text: (§2) Non-specific plasma protein binding can greatly affect the extent of free drug concentration which may influence the lead compound's subsequent inhibitory potential (see table 6 below).

[6] = Plasma protein binding assay (human); assay type: in vitro ADME; details: plasma spiked 1 side; for fraction unbound: plasma
From the text: as §2

CYP3A4 = CYP3A4 (Homo sapiens, UniProt P08684); assay: Cytochrome P450 inhibition IC50 determination (isoform CYP3A4); assay type: in vitro ADME; details: for inhibition at 0.1 µM / inhibition at 0.25 µM / inhibition at 1 µM / inhibition at 2.5 µM / inhibition at 10 µM / inhibition at 25 µM: human; for inhibition at 0.1 µM: CYP3A4, 0.1 μM; for inhibition at 0.25 µM: CYP3A4, 0.25 μM; for inhibition at 1 µM: CYP3A4, 1 μM; for inhibition at 2.5 µM: CYP3A4, 2.5 μM; for inhibition at 10 µM: CYP3A4, 10 μM; for inhibition at 25 µM: CYP3A4, 25 μM
From the text: Two thirds of drugs cleared by metabolism are metabolised at least in part by the cytochrome P450 (CYP) enzymes with the isoform CYP3A4 accounting for almost 50% of all CYP activity. For this reason, we tested whether CYP3A4 is implicated in the clearance of o-TFB-Tyr. […]

HeLa cells = assay: MTT cytotoxicity assay in HeLa cells; assay type: cell-based
Description: The entirety of the following protocol was carried out under aseptic conditions. HeLa cells were cultured in Dulbecco's Modified Eagle's Medium (DMEM) supplemented with 10% Fetal Bovine Serum (FBS) (Sigma F7524). Cells were counted and seeded into clear bottom 96-well plates (Greiner Bio-One) at density 6,000 cells/well. 100 μl of cells were added to each well and placed in the incubator overnight. The following day medium was aspired and 100 μL of treatment was added to wells. Cells were treated with controls (medium alone, Reversine 5 μM, Apcin 25 μM). […]
In vitro cytotoxic analysis involved quantitative measurements of cell proliferation and the subsequent assessment of the relative toxicity of the compounds. (3-(4,5-Dimethylthiazol-2-yl)-2,5-Diphenyltertrazolium Bromide (MTT) is a widely utilised cytotoxic assay that measures cellular metabolic activity as an indicator for cell viability, proliferation and cytotoxicity from the reduction of water soluble yellow tetrazole MTT to insoluble purple formazan crystals by mitochondrial dehydrogenases. The insoluble purple crystalline product was dissolved in DMSO and the resulting coloured solution quantified by measuring the absorbance (570 nm). Reduction can only occur when mitochondrial reductive enzymes are active, thus a direct correlation to the number of viable cells. […]

[7] = Kinetic solubility, turbidimetric method; assay type: physicochemical
Description: Kinetic solubility. This is a valuable initial screen that was carried out prior to starting ADME test in order to identify potential issues and to determine appropriate concentration ranges. Kinetic solubility was measured using a turbidimetric method.

plasma protein [8] = assay: Plasma protein binding assay (mouse); assay type: in vitro ADME
From the text: as §2

[9] = Plasma protein binding assay (mouse); assay type: in vitro ADME; details: plasma spiked 1 side; for fraction unbound: plasma
From the text: as §2

[10] = read-out: Fraction unbound Replicate 1
[11] = read-out: Fraction unbound Replicate 2
[12] = read-out: Fraction unbound Replicate 3
[13] = read-out: Mean fraction unbound
[14] = probe testosterone, read-out: % inhibition with substrate testosterone
[15] = read-out: % inhibition with substrate midazolam
[16] = kinetic solubility, turbidimetric

T1 sequence (Q12834 whole entry): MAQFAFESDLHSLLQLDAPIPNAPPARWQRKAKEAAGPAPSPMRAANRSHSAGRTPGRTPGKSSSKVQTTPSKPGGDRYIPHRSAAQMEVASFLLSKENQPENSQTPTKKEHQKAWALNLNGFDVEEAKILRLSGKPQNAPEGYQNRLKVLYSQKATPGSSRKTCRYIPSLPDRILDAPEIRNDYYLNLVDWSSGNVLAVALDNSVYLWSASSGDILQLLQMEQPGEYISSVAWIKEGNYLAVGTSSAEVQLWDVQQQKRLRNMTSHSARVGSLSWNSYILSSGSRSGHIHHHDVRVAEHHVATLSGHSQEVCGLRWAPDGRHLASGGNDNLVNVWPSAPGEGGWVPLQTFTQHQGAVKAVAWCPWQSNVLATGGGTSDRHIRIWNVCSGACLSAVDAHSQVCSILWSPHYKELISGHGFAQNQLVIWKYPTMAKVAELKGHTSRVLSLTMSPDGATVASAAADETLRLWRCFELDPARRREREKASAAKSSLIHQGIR
CYP3A4, sequence (P08684 whole entry, canonical isoform): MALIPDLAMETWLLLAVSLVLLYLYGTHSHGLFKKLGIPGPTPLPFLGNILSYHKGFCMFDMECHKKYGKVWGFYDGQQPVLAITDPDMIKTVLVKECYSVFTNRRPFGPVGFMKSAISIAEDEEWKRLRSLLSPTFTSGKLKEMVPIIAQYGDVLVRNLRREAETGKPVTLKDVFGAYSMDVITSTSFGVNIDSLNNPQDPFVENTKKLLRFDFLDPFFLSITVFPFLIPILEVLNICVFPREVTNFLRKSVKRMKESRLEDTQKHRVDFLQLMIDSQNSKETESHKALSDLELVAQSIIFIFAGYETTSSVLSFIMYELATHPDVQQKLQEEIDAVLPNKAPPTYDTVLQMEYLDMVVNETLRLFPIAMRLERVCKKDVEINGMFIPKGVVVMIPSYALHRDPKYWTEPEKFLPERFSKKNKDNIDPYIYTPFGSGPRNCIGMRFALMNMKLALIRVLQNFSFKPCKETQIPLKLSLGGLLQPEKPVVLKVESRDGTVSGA

Structure (SMILES): Cc1ncc([N+](=O)[O-])n1CCOC(=O)NC(Nc1ncccn1)C(Cl)(Cl)Cl (stereo not shown) [Apcin, reference compound]
Inhibition of Cyclin B ubiquitylation by APC/C / APC/C activation by Cdc20 [1]: comparatively less effective than compound o-TFB-Tyr

Active transport by membrane proteins such as ABC transporters (Caco-2 cells; Caco2): not actively transported
Direction A to B Mean Papp (Caco-2 cells; Caco2, A to B): 22.1 ×10⁻⁶ cm/s
Direction B to A Mean Papp (Caco-2 cells; Caco2, B to A): 19.1 ×10⁻⁶ cm/s
recovery ([2]; Caco-2, Caco2, A to B, read-out: Direction A to B Mean % recovery): 62.8%
recovery ([2]; Caco-2, Caco2, B to A, read-out: Direction B to A Mean % recovery): 88.9%
efflux ratio ([2]; Caco-2, Caco2, read-out: Efflux ratio (Mean Papp B to A/Mean Papp A to B)): 0.862
Metabolic stability ([4]; Human microsomes): stable
Compound remaining (% of 0 min) ([4]; Human, 0 min): 100 % of 0 min
Compound remaining (% of 0 min) ([4]; Human, 5 min): 107 % of 0 min
Compound remaining (% of 0 min) ([4]; Human, 15 min): 43.7 % of 0 min
Compound remaining (% of 0 min) ([4]; Human, 30 min): 19.3 % of 0 min
Compound remaining (% of 0 min) ([4]; Human, 45 min): 8 % of 0 min and 8.23 % of 0 min
Compound remaining (% of 0 min), Control ([4]; Human, Control incubation): 89.8 % of 0 min
recovery [6]: 101%
fraction unbound [6, 10]: 0.352
fraction unbound [6, 11]: 0.328
fraction unbound [6, 12]: 0.304
fraction unbound [6, 13]: 0.328
inhibition at 0.1 µM (CYP3A4; [14]): -0.99%
inhibition at 0.25 µM (CYP3A4; [14]): 0.136%
inhibition at 1 µM (CYP3A4; [14]): 4.21%
inhibition at 2.5 µM (CYP3A4; [14]): 49%
inhibition at 10 µM (CYP3A4; [14]): 77.3%
inhibition at 25 µM (CYP3A4; [14]): 89.5%
inhibition at 0.1 µM (CYP3A4; [15]): 13.7%
inhibition at 0.25 µM (CYP3A4; [15]): 22.5%
inhibition at 1 µM (CYP3A4; [15]): 47.5%
inhibition at 2.5 µM (CYP3A4; [15]): 65.6%
inhibition at 10 µM (CYP3A4; [15]): 84.4%
inhibition at 25 µM (CYP3A4; [15]): 91.1%
Solubility in aqueous solutions [7]: readily soluble in aqueous solutions
Estimated Precipitation Range, Calculated mid-range [7, 16]: >100 µM
Estimated Precipitation Range, Lower bound [7, 16]: 100 µM
Estimated Precipitation Range, Upper bound [7, 16]: >100 µM
recovery [9]: 102%
fraction unbound [9, 10]: 0.28
fraction unbound [9, 11]: 0.28
fraction unbound [9, 12]: 0.301
fraction unbound [9, 13]: 0.287
Structure (SMILES): N[C@@H](Cc1ccc(O)cc1)C(=O)NCc1ccccc1C(F)(F)F [o-TFB-Tyr, (2S)-2-amino-N-[2-(trifluoromethyl)benzyl]-3-[4-(hydroxy)phenyl]propanamide]
Inhibition of Cyclin B ubiquitylation by APC/C / APC/C activation by Cdc20 [1]: confirmed the inhibitory effect of this compound on APC/C activation by Cdc20; also recorded: confirmed the inhibition of APC/C activation by Cdc20; also recorded: causes inhibition of Cyclin B ubiquitylation by APC/C
Diffusion across the membrane (Caco-2 cells; Caco2): diffuses freely across the semipermeable membrane in both directions
Number of clones [3]: lower number of triple negative breast cancer cell clones
Non-specific plasma protein binding (plasma protein [5]): absence of non-specific plasma protein binding
IC50 compared with control compounds (CYP3A4; CYP3A4, midazolam and testosterone as substrates): much higher than that of controls compounds
Relative cytotoxicity compared with other compounds (HeLa cells; MTT, FIGS. 5 and 6): higher cytotoxic effect
Cytotoxic activity, concentration range (HeLa cells; cytotoxicity and clonogenic studies): 200 to 10 μM
Non-specific plasma protein binding (plasma protein [8]): absence of non-specific plasma protein binding

Structure (SMILES): c1nc2nc(Nc3ccc(N4CCOCC4)cc3)nc(NC3CCCCC3)c2[nH]1 [Reversine, reference compound]
Number of clones [3]: lower number of triple negative breast cancer cell clones
